# Measured values: patent publication US20250084084A1, “Crystalline form of (2R)-2-(5-fluoro-2-methoxypyridin-4-yl)-1-[(2S)-7-methyl-6-(pyrimidin-2-yl)-3,4-dihydro-1H-spiro[1,8-naphthyridine-2,3-pyrrolidin]-1-yl]propan-1-one” (Pfizer Inc., priority 2020, published 2025)
# Biological target: α-melanocyte-stimulating hormone receptor (hMC4R) (Homo sapiens (Human), UniProt P32245)
# Assay: In vitro binding affinity assay using hMC4R (radioligand competition binding, [125I]-(Nle4, D-Phe7)-α-MSH)
# Conditions: geometric mean, read-out: Ki (nM) geometric
# How it was run: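 Membranes from CHO cells stably expressing hMC4R (2 μg/well) incubated 2 h RT with [125I]-NDP-α-MSH and compound (300 nM-0.01 nM, 1% DMSO); 2 μM α-MSH defined nonspecific binding. Filtration and scintillation counting; Ki from IC50 via Cheng-Prusoff.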
# Chain of α-melanocyte-stimulating hormone receptor (hMC4R) (P32245 whole entry): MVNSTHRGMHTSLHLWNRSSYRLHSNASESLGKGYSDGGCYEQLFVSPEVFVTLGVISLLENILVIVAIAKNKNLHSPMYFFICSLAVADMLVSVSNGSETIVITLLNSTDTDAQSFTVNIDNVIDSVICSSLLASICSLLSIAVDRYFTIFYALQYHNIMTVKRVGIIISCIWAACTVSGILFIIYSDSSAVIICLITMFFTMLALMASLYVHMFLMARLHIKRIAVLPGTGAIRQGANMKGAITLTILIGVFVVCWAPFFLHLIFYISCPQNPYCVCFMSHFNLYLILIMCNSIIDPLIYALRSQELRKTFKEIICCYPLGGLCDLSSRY
row,Ki [nM],Structure (SMILES)
1,47,"COc1cc([C@@H](C)C(=O)N2CC[C@@]3(CCc4cc(-c5cccc(-c6nnc(C)o6)c5)c(C)nc4N3)C2)c(F)cn1 [Example 161, (2R)-2-(5-fluoro-2-methoxypyridin-4-yl)-1-{(2S)-7-methyl-6-[3-(5-methyl-1,3,4-oxadiazol-2-yl)phenyl]-3,4-dihydro-1H-spiro[1,8-naphthyridine-2,3′-pyrrolidin]-1′-yl}propan-1-one]"
2,8.2,"COc1cc([C@@H](C)C(=O)N2CC[C@@]3(CCc4cc(-c5nc(C(C)C)ns5)c(C)nc4N3)C2)c(F)cn1 [Example 162, (2R)-2-(5-fluoro-2-methoxypyridin-4-yl)-1-{(2S)-7-methyl-6-[3-(propan-2-yl)-1,2,4-thiadiazol-5-yl]-3,4-dihydro-1H-spiro[1,8-naphthyridine-2,3′-pyrrolidin]-1′-yl}propan-1-one]"
3,2.8,"COc1cc([C@@H](C)C(=O)N2CC[C@@]3(CCc4cc(-c5nc(C)c(C)s5)c(C)nc4N3)C2)c(F)cn1 [Example 163, (2R)-1-[(2S)-6-(4,5-dimethyl-1,3-thiazol-2-yl)-7-methyl-3,4-dihydro-1H-spiro[1,8-naphthyridine-2,3′-pyrrolidin]-1′-yl]-2-(5-fluoro-2-methoxypyridin-4-yl)propan-1-one]"
4,18,"COc1cc([C@@H](C)C(=O)N2CC[C@@]3(CCc4cc(-c5nccnc5C)c(C)nc4N3)C2)c(F)cn1 [Example 164, (2R)-2-(5-fluoro-2-methoxypyridin-4-yl)-1-[(2S)-7-methyl-6-(3-methylpyrazin-2-yl)-3,4-dihydro-1H-spiro[1,8-naphthyridine-2,3′-pyrrolidin]-1′-yl]propan-1-one]"
5,81,"COc1cc([C@@H](C)C(=O)N2CC[C@@]3(CCc4cc(-c5ccc6sc(C)nc6c5)c(C)nc4N3)C2)c(F)cn1 [Example 165, (2R)-2-(5-fluoro-2-methoxypyridin-4-yl)-1-[(2S)-7-methyl-6-(2-methyl-1,3-benzothiazol-5-yl)-3,4-dihydro-1H-spiro[1,8-naphthyridine-2,3′-pyrrolidin]-1′-yl]propan-1-one]"
6,8.2,"COc1cc([C@@H](C)C(=O)N2CC[C@@]3(CCc4cc(-c5cc(C)ccn5)c(C)nc4N3)C2)c(F)cn1 [Example 166, (2R)-2-(5-fluoro-2-methoxypyridin-4-yl)-1-[(2S)-7-methyl-6-(4-methylpyridin-2-yl)-3,4-dihydro-1H-spiro[1,8-naphthyridine-2,3′-pyrrolidin]-1′-yl]propan-1-one]"
7,5.4,"COc1cc([C@@H](C)C(=O)N2CC[C@@]3(CCc4cc(-c5nccs5)c(C)nc4N3)C2)c(F)cn1 [Example 167, (2R)-2-(5-fluoro-2-methoxypyridin-4-yl)-1-[(2S)-7-methyl-6-(1,3-thiazol-2-yl)-3,4-dihydro-1H-spiro[1,8-naphthyridine-2,3′-pyrrolidin]-1′-yl]propan-1-one]"
8,86,"COc1cc([C@@H](C)C(=O)N2CC[C@@]3(CCc4cc(-c5nnc(N6CCCCC6)s5)c(C)nc4N3)C2)c(F)cn1 [Example 168, (2R)-2-(5-fluoro-2-methoxypyridin-4-yl)-1-{(2S)-7-methyl-6-[5-(piperidin-1-yl)-1,3,4-thiadiazol-2-yl]-3,4-dihydro-1H-spiro[1,8-naphthyridine-2,3′-pyrrolidin]-1′-yl}propan-1-one]"
9,7.6,"COc1cc([C@@H](C)C(=O)N2CC[C@@]3(CCc4cc(-c5ccncc5)c(C)nc4N3)C2)c(F)cn1 [Example 169, (2R)-2-(5-fluoro-2-methoxypyridin-4-yl)-1-[(2S)-7-methyl-6-(pyridin-4-yl)-3,4-dihydro-1H-spiro[1,8-naphthyridine-2,3′-pyrrolidin]-1′-yl]propan-1-one]"
10,43,"COc1cc([C@@H](C)C(=O)N2CC[C@@]3(CCc4cc(-c5cnc(C(F)(F)F)nc5)c(C)nc4N3)C2)c(F)cn1 [Example 170, (2R)-2-(5-fluoro-2-methoxypyridin-4-yl)-1-{(2S)-7-methyl-6-[2-(trifluoromethyl)pyrimidin-5-yl]-3,4-dihydro-1H-spiro[1,8-naphthyridine-2,3′-pyrrolidin]-1′-yl}propan-1-one]"
11,3.6,"COc1cc([C@@H](C)C(=O)N2CC[C@@]3(CCc4cc(-c5csc(C6CC6)n5)c(C)nc4N3)C2)c(F)cn1 [Example 171, (2R)-1-[(2S)-6-(2-cyclopropyl-1,3-thiazol-4-yl)-7-methyl-3,4-dihydro-1H-spiro[1,8-naphthyridine-2,3′-pyrrolidin]-1′-yl]-2-(5-fluoro-2-methoxypyridin-4-yl)propan-1-one]"
12,85,"COc1cc([C@@H](C)C(=O)N2CC[C@@]3(CCc4cc(-c5cccc(-c6cnco6)c5)c(C)nc4N3)C2)c(F)cn1 [Example 173, (2R)-2-(5-fluoro-2-methoxypyridin-4-yl)-1-{(2S)-7-methyl-6-[3-(1,3-oxazol-5-yl)phenyl]-3,4-dihydro-1H-spiro[1,8-naphthyridine-2,3′-pyrrolidin]-1′-yl}propan-1-one]"
13,26,"COc1cc([C@@H](C)C(=O)N2CC[C@@]3(CCc4cc(-c5ccc(C(F)F)nc5)c(C)nc4N3)C2)c(F)cn1 [Example 174, (2R)-1-{(2S)-6-[6-(difluoromethyl)pyridin-3-yl)-7-methyl-3,4-dihydro-1H-spiro[1,8-naphthyridine-2,3′-pyrrolidin]-1′-yl}-2-(5-fluoro-2-methoxypyridin-4-yl)propan-1-one]"
14,45,"COc1cc([C@@H](C)C(=O)N2CC[C@@]3(CCc4cc(-c5ccc(-c6noc(C)n6)cc5)c(C)nc4N3)C2)c(F)cn1 [Example 175, (2R)-2-(5-fluoro-2-methoxypyridin-4-yl)-1-{(2S)-7-methyl-6-[4-(5-methyl-1,2,4-oxadiazol-3-yl)phenyl]-3,4-dihydro-1H-spiro[1,8-naphthyridine-2,3′-pyrrolidin]-1′-yl}propan-1-one]"
15,26,"COc1cc([C@@H](C)C(=O)N2CC[C@@]3(CCc4cc(-c5cc(C)ns5)c(C)nc4N3)C2)c(F)cn1 [Example 176, (2R)-2-(5-fluoro-2-methoxypyridin-4-yl)-1-[(2S)-7-methyl-6-(3-methyl-1,2-thiazol-5-yl)-3,4-dihydro-1H-spiro[1,8-naphthyridine-2,3′-pyrrolidin]-1′-yl]propan-1-one]"
16,59,"COc1cc([C@@H](C)C(=O)N2CC[C@@]3(CCc4cc(-c5cncc(C6CC6)n5)c(C)nc4N3)C2)c(F)cn1 [Example 177, (2R)-1-[(2S)-6-(6-cyclopropylpyrazin-2-yl)-7-methyl-3,4-dihydro-1H-spiro[1,8-naphthyridine-2,3′-pyrrolidin]-1′-yl]-2-(5-fluoro-2-methoxypyridin-4-yl)propan-1-one]"
17,4.7,"COc1cc([C@@H](C)C(=O)N2CC[C@@]3(CCc4cc(-c5cccc(C(F)(F)F)n5)c(C)nc4N3)C2)c(F)cn1 [Example 178, (2R)-2-(5-fluoro-2-methoxypyridin-4-yl)-1-{(2S)-7-methyl-6-[6-(trifluoromethyl)pyridin-2-yl]-3,4-dihydro-1H-spiro[1,8-naphthyridine-2,3′-pyrrolidin]-1′-yl}propan-1-one]"
18,21,"COc1cc([C@@H](C)C(=O)N2CC[C@@]3(CCc4cc(-c5ccc(C(F)F)cn5)c(C)nc4N3)C2)c(F)cn1 [Example 179, (2R)-1-{(2S)-6-[5-(difluoromethyl)pyridin-2-yl]-7-methyl-3,4-dihydro-1H-spiro[1,8-naphthyridine-2,3′-pyrrolidin]-1′-yl}-2-(5-fluoro-2-methoxypyridin-4-yl)propan-1-one]"
19,21,"COc1cc([C@@H](C)C(=O)N2CC[C@@]3(CCc4cc(-c5ccc(OC(F)(F)F)cn5)c(C)nc4N3)C2)c(F)cn1 [Example 180, (2R)-2-(5-fluoro-2-methoxypyridin-4-yl)-1-{(2S)-7-methyl-6-[5-(trifluoromethoxy)pyridin-2-yl]-3,4-dihydro-1H-spiro[1,8-naphthyridine-2,3′-pyrrolidin]-1′-yl}propan-1-one]"
20,2.4,"COc1cc([C@@H](C)C(=O)N2CC[C@@]3(CCc4cc(-c5cccc(C(F)F)n5)c(C)nc4N3)C2)c(F)cn1 [Example 181, (2R)-1-{(2S)-6-[6-(difluoromethyl)pyridin-2-yl)-7-methyl-3,4-dihydro-1H-spiro[1,8-naphthyridine-2,3′-pyrrolidin]-1′-yl}-2-(5-fluoro-2-methoxypyridin-4-yl)propan-1-one]"
21,12,"COc1cc([C@@H](C)C(=O)N2CC[C@@]3(CCc4cc(-c5nc(C(F)(F)F)cs5)c(C)nc4N3)C2)c(F)cn1 [Example 182, (2R)-2-(5-fluoro-2-methoxypyridin-4-yl)-1-{(2S)-7-methyl-6-[4-(trifluoromethyl)-1,3-thiazol-2-yl]-3,4-dihydro-1H-spiro[1,8-naphthyridine-2,3′-pyrrolidin]-1′-yl}propan-1-one]"
22,4,"COc1cc([C@@H](C)C(=O)N2CC[C@@]3(CCc4cc(-c5cc(C)nc(C(C)C)n5)c(C)nc4N3)C2)c(F)cn1 [Example 183, (2R)-2-(5-fluoro-2-methoxypyridin-4-yl)-1-{(2S)-7-methyl-6-[6-methyl-2-(propan-2-yl)pyrimidin-4-yl]-3,4-dihydro-1H-spiro[1,8-naphthyridine-2,3′-pyrrolidin]-1′-yl}propan-1-one]"
23,6.3,"COc1cc([C@@H](C)C(=O)N2CC[C@@]3(CCc4cc(-c5nc(C)cc(C)n5)c(C)nc4N3)C2)c(F)cn1 [Example 184, (2R)-1-[(2S)-6-(4,6-dimethylpyrimidin-2-yl)-7-methyl-3,4-dihydro-1H-spiro[1,8-naphthyridine-2,3′-pyrrolidin]-1′-yl]-2-(5-fluoro-2-methoxypyridin-4-yl)propan-1-one]"
24,19,"COc1cc([C@@H](C)C(=O)N2CC[C@@]3(CCc4cc(-c5ccc(C6CC6)cn5)c(C)nc4N3)C2)c(F)cn1 [Example 186, (2R)-1-[(2S)-6-(5-cyclopropylpyridin-2-yl)-7-methyl-3,4-dihydro-1H-spiro[1,8-naphthyridine-2,3′-pyrrolidin]-1′-yl]-2-(5-fluoro-2-methoxypyridin-4-yl)propan-1-one]"
